Assay results as given in patent publication US20240002374A1, “5-MEMBERED HETEROARYLAMINOSULFONAMIDES FOR TREATING CONDITIONS MEDIATED BY DEFICIENT CFTR ACTIVITY” (Genzyme Corporation, priority 2019, published 2024).

biological target: T1, CFTR (primary human bronchial epithelial cells from a ΔF508 homozygous CF donor, CF-HBE cells) (Homo sapiens, UniProt P13569, DEL508-508); assay: TECC24 recording of CFTR-mediated transepithelial chloride transport (TECC24 AUC fold over DMSO @ 3 μM); format: cell-based; settings: 3 uM test agent; CF-HBE cells (ΔF508 homozygous) incubated 48 h; ratio of test agent AUC of forskolin-stimulated IEQ to vehicle (DMSO) AUC
T1 construct: Primary human bronchial epithelial cells from a ΔF508 homozygous CF donor; host or cells: primary human bronchial epithelial cells (CF-HBE) from a ΔF508 homozygous CF donor
Method: Example 510: TECC24 AUC Fold Over DMSO @ 3 μM
The effects of a test agent on CFTR-mediated transepithelial chloride transport was measured using TECC24 recording analysis. Test agents were solubilized in DMSO. Solubilized test agents were mixed with incubation medium containing DMEM/F12, Ultroser G (2%; Crescent Chemical, catalog #67042), Hyclone Fetal Clone H (2%; GE Healthcare, catalog #SH30066.02), bovine brain extract (0.25%; Lonza, catalog #CC-4098), insulin (2.5 μg/mL), IL-13 (10 ng/mL), hydrocortisone (20 nM), transferrin (2.5 μg/mL), triiodothyronine (500 nM), ethanolamine (250 nM), epinephrine (1.5 μM), phosphoethanolamine (250 nM), and retinoic acid (10 nM). Primary human bronchial epithelial cells from a ΔF508 homozygous CF donor (CF-HBE cells; from University of North Carolina Cystic Fibrosis Tissue Procurement Center), grown on Transwell HTS 24-well cell culture inserts (Costar, catalog #3378), were exposed to test agents or controls dissolved in incubation medium. The CF-HBE cells were cultured at 36.5° C. for 48 h before TECC24 recordings were performed in the presence or absence of test agent, a positive control or vehicle (DMSO).
Following incubation, the transwell cell culture inserts containing the test agent or control-treated CF-HBE cells were loaded onto a TECC24 apparatus (TECC v7 or MTECC v2; EP Design) to record the transepithelial voltage (VT) and resistance (TEER) using 4 AgCl electrodes per well configured in current-clamp mode. The apical and basolateral bath solutions both contained (in mM) 140 NaCl, 5 KCl, 2 CaCl2), 1 MgCl2, 10 Hepes, and 10 glucose (adjusted to pH 7.4 with NaOH) […]. To inhibit basal Na+ absorption, the ENaC inhibitor benzamil (10 μM) was added to the bath. Then, the adenylate cyclase activator, forskolin (10 μM), was added to the bath to activate CFTR. The forskolin-stimulated Cl− transport was halted by addition of bumetanide (20 μM), an inhibitor of the basolateral chloride co-transporter NKCC1, to the bath to confirm that the detected signal was chloride dependent. VT and TEER recordings were digitally acquired at routine intervals using TECC or MTECC software (EP Design). VT and TEER were transformed into equivalent transepithelial Cl− current (IEQ), and the Area Under the Curve (AUC) of the IEQ time course between forskolin and bumetanide addition is generated using Excel (Microsoft). Efficacy is expressed as the ratio of the test agent AUC divided by vehicle AUC. EC50s based on AUC are generated using the non-linear regression log(agonist) vs. response function in Prism software (GraphPad) with Hill Slope fixed=1.
If a test agent increased the AUC of the forskolin-stimulated IEQ relative to vehicle in CF-HBE cells, and this increase was inhibited by bumetanide, then the test agent was considered a CFTR corrector.

T1 sequence (P13569 with tags, fused parts or gaps DEL508-508): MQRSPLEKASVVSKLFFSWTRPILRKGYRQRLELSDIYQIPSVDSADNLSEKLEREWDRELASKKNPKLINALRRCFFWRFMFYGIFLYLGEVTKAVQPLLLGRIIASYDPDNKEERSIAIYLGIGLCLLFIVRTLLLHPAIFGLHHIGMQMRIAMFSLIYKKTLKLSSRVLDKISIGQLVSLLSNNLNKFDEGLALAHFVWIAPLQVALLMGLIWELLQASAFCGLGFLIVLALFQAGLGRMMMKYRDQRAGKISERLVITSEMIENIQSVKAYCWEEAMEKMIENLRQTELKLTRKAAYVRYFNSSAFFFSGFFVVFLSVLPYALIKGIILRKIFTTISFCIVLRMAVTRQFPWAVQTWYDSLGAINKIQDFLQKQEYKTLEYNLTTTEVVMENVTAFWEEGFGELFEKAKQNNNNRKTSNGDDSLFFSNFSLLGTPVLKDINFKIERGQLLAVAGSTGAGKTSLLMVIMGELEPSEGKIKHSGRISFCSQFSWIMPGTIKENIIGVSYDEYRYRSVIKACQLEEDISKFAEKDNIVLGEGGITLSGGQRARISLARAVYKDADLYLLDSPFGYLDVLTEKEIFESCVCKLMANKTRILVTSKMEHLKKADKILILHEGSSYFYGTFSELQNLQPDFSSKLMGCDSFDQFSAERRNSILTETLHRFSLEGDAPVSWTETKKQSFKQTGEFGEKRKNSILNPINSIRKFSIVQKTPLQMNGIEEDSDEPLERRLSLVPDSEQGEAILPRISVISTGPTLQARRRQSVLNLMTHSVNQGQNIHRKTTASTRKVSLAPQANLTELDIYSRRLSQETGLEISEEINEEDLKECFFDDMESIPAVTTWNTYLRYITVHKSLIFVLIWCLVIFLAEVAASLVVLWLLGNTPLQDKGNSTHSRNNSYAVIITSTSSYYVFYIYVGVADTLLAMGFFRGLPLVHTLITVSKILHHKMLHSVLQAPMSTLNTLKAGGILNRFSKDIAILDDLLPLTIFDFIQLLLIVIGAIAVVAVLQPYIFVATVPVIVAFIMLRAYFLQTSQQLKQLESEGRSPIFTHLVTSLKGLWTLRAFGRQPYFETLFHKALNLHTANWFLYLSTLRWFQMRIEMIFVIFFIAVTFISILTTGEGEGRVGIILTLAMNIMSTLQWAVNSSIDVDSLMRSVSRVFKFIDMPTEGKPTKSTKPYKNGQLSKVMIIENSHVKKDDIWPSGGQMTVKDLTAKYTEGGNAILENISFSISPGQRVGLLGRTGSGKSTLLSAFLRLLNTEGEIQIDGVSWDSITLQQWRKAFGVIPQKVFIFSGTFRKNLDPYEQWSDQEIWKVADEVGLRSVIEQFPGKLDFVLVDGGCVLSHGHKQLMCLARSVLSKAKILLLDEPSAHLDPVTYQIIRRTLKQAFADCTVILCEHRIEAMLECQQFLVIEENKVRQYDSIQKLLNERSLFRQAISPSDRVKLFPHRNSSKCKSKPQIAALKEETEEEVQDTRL

TECC AUC vs. DMSO @ 3 uM	Compound
C (“C” refers to AUC < 2)	O=S(=O)(Nc1nc(-c2ccccc2C(F)(F)F)c(-c2cccc([C@H]3CC[C@H](OC(F)(F)F)C3)c2)s1)c1ccccc1 (single isomer, unassigned) [Example 44A2]
B (“B” refers to AUC 2-5)	O=S(=O)(Nc1nc(-c2ccccc2C(F)(F)F)c(-c2cccc([C@@H]3CC[C@@H](OC(F)(F)F)C3)c2)s1)c1ccccc1 (single isomer, unassigned) [Example 44B1]
C (“C” refers to AUC < 2)	O=S(=O)(Nc1nc(-c2ccccc2C(F)(F)F)c(-c2cccc([C@@H]3CC[C@H](OC(F)(F)F)C3)c2)s1)c1ccccc1 (single isomer, unassigned) [Example 44B2]
B (“B” refers to AUC 2-5)	Cc1nn(C)cc1S(=O)(=O)Nc1nc(-c2ccccc2C(F)(F)F)c(-c2cccc([C@H]3CC[C@@H](OC(F)(F)F)C3)c2)s1 (single isomer, unassigned) [Example 45A1]
B (“B” refers to AUC 2-5)	Cc1nn(C)cc1S(=O)(=O)Nc1nc(-c2ccccc2C(F)(F)F)c(-c2cccc([C@H]3CC[C@H](OC(F)(F)F)C3)c2)s1 (single isomer, unassigned) [Example 45A2]
A (“A” refers to AUC > 5)	Cc1nn(C)cc1S(=O)(=O)Nc1nc(-c2ccccc2C(F)(F)F)c(-c2cccc([C@@H]3CC[C@H](OC(F)(F)F)C3)c2)s1 (single isomer, unassigned) [Example 45B1]
C (“C” refers to AUC < 2)	Cc1nn(C)cc1S(=O)(=O)Nc1nc(-c2ccccc2C(F)(F)F)c(-c2cccc([C@@H]3CC[C@@H](OC(F)(F)F)C3)c2)s1 (single isomer, unassigned) [Example 45B2]
C (“C” refers to AUC < 2)	Nc1cccc(S(=O)(=O)Nc2nc(-c3ccccc3C(F)(F)F)c(-c3cccc([C@H]4CC[C@@H](OC(F)(F)F)C4)c3)s2)c1F (single isomer, unassigned) [Example 47A1]
C (“C” refers to AUC < 2)	Nc1cccc(S(=O)(=O)Nc2nc(-c3ccccc3C(F)(F)F)c(-c3cccc([C@H]4CC[C@H](OC(F)(F)F)C4)c3)s2)c1F (single isomer, unassigned) [Example 47A2]

The remaining lines, values behind:

Compound	TECC AUC vs. DMSO @ 3 uM
Nc1cccc(S(=O)(=O)Nc2nc(-c3ccc(C(F)(F)F)cc3)c(-c3cc(F)cc(O[C@H]4CCC(OC(F)(F)F)C4)c3)s2)c1 (single isomer, unassigned) [Example 43A]	B (“B” refers to AUC 2-5)
Nc1cccc(S(=O)(=O)Nc2nc(-c3ccc(C(F)(F)F)cc3)c(-c3cc(F)cc(O[C@@H]4CCC(OC(F)(F)F)C4)c3)s2)c1 (single isomer, unassigned) [Example 43B]	A (“A” refers to AUC > 5)
O=S(=O)(Nc1nc(-c2ccccc2C(F)(F)F)c(-c2cccc([C@H]3CC[C@@H](OC(F)(F)F)C3)c2)s1)c1ccccc1 (single isomer, unassigned) [Example 44A1]	B (“B” refers to AUC 2-5)
Cc1cccc(C)c1-c1nc(NS(=O)(=O)c2ccccc2)sc1-c1cc(F)cc(OCC(C)(C)C)c1 [Example 1, N-(4-(2,6-Dimethylphenyl)-5-(3-fluoro-5-(neopentyloxy)phenyl)thiazol-2-yl)benzenesulfonamide]	A (“A” refers to AUC > 5)
Cc1cccc(C(F)(F)F)c1-c1nc(NS(=O)(=O)c2ccccc2)sc1-c1cc(F)cc(OCCC(C)(C)C)c1 [Example 2, N-(5-(3-(3,3-Dimethylbutoxy)-5-fluorophenyl)-4-(2-methyl-6-(trifluoromethyl)phenyl)thiazol-2-yl)benzenesulfonamide]	A (“A” refers to AUC > 5)
CC(C)c1ccccc1-c1nc(NS(=O)(=O)c2ccccc2)sc1-c1cc(F)cc(OCCC(C)(C)C)c1 [Example 3, N-(5-(3-(3,3-Dimethylbutoxy)-5-fluorophenyl)-4-(2-isopropylphenyl)thiazol-2-yl)benzenesulfonamide]	A (“A” refers to AUC > 5)
CC(C)Oc1ccccc1-c1nc(NS(=O)(=O)c2ccccc2)sc1-c1cccc(OCC(C)(C)C)c1 [Example 4, N-(4-(2-Isopropoxyphenyl)-5-(3-(neopentyloxy)phenyl)thiazol-2-yl)benzenesulfonamide]	B (“B” refers to AUC 2-5)
CC(Oc1cc(F)ccc1-c1nc(NS(=O)(=O)c2ccn(C)n2)sc1-c1cc(F)cc(OCCC(C)(C)C)c1)C(F)(F)F (centres unmarked) [Example 5, N-(5-(3-(3,3-Dimethylbutoxy)-5-fluorophenyl)-4-(4-fluoro-2-((1,1,1-trifluoropropan-2-yl)oxy)phenyl)thiazol-2-yl)-1-methyl-1H-pyrazole-3-sulfonamide]	B (“B” refers to AUC 2-5)
Cc1cccc(C)c1-c1nc(NS(=O)(=O)c2cn(C)nc2C)sc1-c1cccc(OCC(C)(C)C(F)(F)F)c1 [Example 6, N-(4-(2,6-Dimethylphenyl)-5-(3-(3,3,3-trifluoro-2,2-dimethylpropoxy)phenyl)thiazol-2-yl)-1,3-dimethyl-1H-pyrazole-4-sulfonamide]	B (“B” refers to AUC 2-5)
Cc1cccc(C)c1-c1nc(NS(=O)(=O)c2cccc(N)c2)sc1-c1cc(F)cc(OCCC(C)(C)C)c1 [Example 7, 3-Amino-N-(5-(3-(3,3-dimethylbutoxy)-5-fluorophenyl)-4-(2,6-dimethylphenyl)thiazol-2-yl)benzenesulfonamide]	A (“A” refers to AUC > 5)
CC(C)(C)CCOc1cccc(-c2sc(NS(=O)(=O)c3cccc(N)c3)nc2-c2ccccc2C(F)(F)F)c1 [Example 8, 3-Amino-N-[5-[3-(3,3-dimethylbutoxy)phenyl]-4-[2-(trifluoromethyl)phenyl]thiazol-2-yl]benzenesulfonamide]	A (“A” refers to AUC > 5)
CC(C)(C)CCOc1cc(F)cc(-c2sc(NS(=O)(=O)c3cccc(N)c3)nc2-c2ccc(C(F)(F)F)cc2)c1 [Example 9, 3-Amino-N-(5-(3-(3,3-dimethylbutoxy)-5-fluorophenyl)-4-(4-(trifluoromethyl)phenyl)thiazol-2-yl)benzenesulfonamide]	B (“B” refers to AUC 2-5)
CC(C)(C)CCOc1cccc(-c2sc(NS(=O)(=O)c3cccc(N)c3)nc2-c2ccc(C(F)(F)F)cc2)c1 [Example 10, 3-Amino-N-(5-(3-(3,3-dimethylbutoxy)phenyl)-4-(4-(trifluoromethyl)phenyl)thiazol-2-yl)benzenesulfonamide]	A (“A” refers to AUC > 5)
CC(C)c1ccccc1-c1nc(NS(=O)(=O)c2cccc(N)c2)sc1-c1cc(F)cc(OCCC(C)(C)C)c1 [Example 11, 3-Amino-N-(5-(3-(3,3-dimethylbutoxy)-5-fluorophenyl)-4-(2-isopropylphenyl)thiazol-2-yl)benzenesulfonamide]	A (“A” refers to AUC > 5)
Cc1cccc(C)c1-c1nc(NS(=O)(=O)c2cc(N)ccc2F)sc1-c1ccc(F)c(OCC(C)(C)C(F)(F)F)c1 [Example 12, 5-Amino-N-(4-(2,6-dimethylphenyl)-5-(4-fluoro-3-(3,3,3-trifluoro-2,2-dimethylpropoxy)phenyl)thiazol-2-yl)-2-fluorobenzenesulfonamide]	A (“A” refers to AUC > 5)
Cc1cccc(C)c1-c1nc(NS(=O)(=O)c2cccc(NC3CC(C)(O)C3)c2)sc1-c1cccc(OCC(C)(C)C(F)(F)F)c1 (centres unmarked) [Example 13, N-(4-(2,6-Dimethylphenyl)-5-(3-(3,3,3-trifluoro-2,2-dimethylpropoxy)phenyl)thiazol-2-yl)-3-((3-hydroxy-3-methylcyclobutyl)amino)benzenesulfonamide]	A (“A” refers to AUC > 5)
Cc1cccc(C(F)(F)F)c1-c1nc(NS(=O)(=O)c2cccc(N)c2)sc1-c1cccc(OCCC(C)(C)C)c1 [Example 14, 3-Amino-N-(5-(3-(3,3-dimethylbutoxy)phenyl)-4-(2-methyl-6-(trifluoromethyl)phenyl)thiazol-2-yl)benzenesulfonamide]	A (“A” refers to AUC > 5)
